Data: ChEMBL document CHEMBL3045108, “Advanced QSRR models of toxicological screening of basic drugs in whole blood by UPLC-TOFMS” (Med Chem Res, 2012)

Tested on: Blood
Assay: Drug level in Homo sapiens (human) whole blood assessed as retention time by UPLC-TOF-MS analysis

CN(C)CCc1c[nH]c2ccccc12
Retention_time: 2.89 min

CNC(C)Cc1ccc(OC)cc1 (configuration not stated)
Retention_time: 3.14 min

CN1CCC[C@@H]1Cc1c[nH]c2ccc(CCS(=O)(=O)c3ccccc3)cc12
Retention_time: 5.21 min

CCCc1nc(C)c2c(=O)[nH]c(-c3cc(S(=O)(=O)N4CCN(CC)CC4)ccc3OCC)nn12
Retention_time: 5.17 min

CNCCCC1(c2ccc(F)cc2)OCc2cc(C#N)ccc21 (configuration not stated)
Retention_time: 5.47 min

CCCc1nn(C)c2c(=O)[nH]c(-c3cc(S(=O)(=O)N4CCN(C)CC4)ccc3OCC)nc12
Retention_time: 5.54 min

CC(C=C(c1ccccc1)c1ccccc1)N(C)C (configuration not stated)
Retention_time: 5.72 min

CCNCCN1C(=O)CN=C(c2ccccc2F)c2cc(Cl)ccc21
Retention_time: 6.19 min

NC1=Nc2ccc(Cl)cc2C(c2ccccc2)=[N+]([O-])C1
Retention_time: 4.85 min

CCC(Cc1ccc2c(c1)OCO2)NC (configuration not stated)
Retention_time: 3.61 min

COc1cc(CCN)c(OC)cc1Br
Retention_time: 4.52 min

COc1cc(CCN)c(OC)cc1I
Retention_time: 4.92 min

CN(C)c1nc(N)c(C(=O)NC(=N)N)nc1Cl
Retention_time: 3.54 min

CCOC(=O)[C@H](CCc1ccccc1)N[C@@H](C)C(=O)N1CCC[C@H]1C(=O)O
Retention_time: 5.23 min

COc1ccc(N2CCNCC2)cc1
Retention_time: 2.59 min

COc1ccc(CCN(C)CCCC(C#N)(c2ccc(OC)c(OC)c2)C(C)C)cc1OC (configuration not stated)
Retention_time: 5.95 min

CN1C(=O)CN=C(c2ccccc2F)c2cc(N)ccc21 [7-AMINO-FLUNITRAZEPAM]
Retention_time: 4.02 min

Nc1ccc2c(c1)C(c1ccccc1)=NCC(=O)N2 [7-AMINO-NITRAZEPAM]
Retention_time: 2.26 min

Nc1ccc2c(c1)C(c1ccccc1Cl)=NCC(=O)N2 [7-AMINOCLONAZEPAM]
Retention_time: 3.39 min

CCCC(=O)Nc1ccc(OCC(O)CNC(C)C)c(C(C)=O)c1 (configuration not stated) [ACEBUTOLOL]
Retention_time: 4.07 min

CC(=O)c1ccc2c(c1)N(CCCN(C)C)c1ccccc1S2 [ACEPROMAZINE]
Retention_time: 5.67 min

Cc1ccc(/C(=C\CN2CCCC2)c2cccc(/C=C/C(=O)O)n2)cc1 [ACRIVASTINE]
Retention_time: 5.64 min

Cc1nnc2n1-c1ccc(Cl)cc1C(c1ccccc1)=NC2 [ALPRAZOLAM]
Retention_time: 6.09 min

CCN1CCCC1CNC(=O)c1cc(S(=O)(=O)CC)c(N)cc1OC (configuration not stated) [AMISULPRIDE]
Retention_time: 3.4 min

CN(C)CCC=C1c2ccccc2CCc2ccccc21 [AMITRIPTYLINE]
Retention_time: 5.86 min

CCOC(=O)C1=C(COCCN)NC(C)=C(C(=O)OC)C1c1ccccc1Cl (configuration not stated) [AMLODIPINE]
Retention_time: 5.94 min

CC(N)Cc1ccccc1 (configuration not stated) [AMPHETAMINE]
Retention_time: 2.6 min

O=C1CCc2ccc(OCCCCN3CCN(c4cccc(Cl)c4Cl)CC3)cc2N1 [ARIPIPRAZOLE]
Retention_time: 5.9 min

CN(C)C(=O)Oc1cc(OC(=O)N(C)C)cc(C(O)CNC(C)(C)C)c1 (configuration not stated) [BAMBUTEROL]
Retention_time: 4.84 min

CCOC(=O)c1ccc(N)cc1 [BENZOCAINE]
Retention_time: 5.15 min

C[C@@H](Cc1ccccc1)N(C)Cc1ccccc1 [BENZPHETAMINE]
Retention_time: 5.24 min

OC(CCN1CCCCC1)(c1ccccc1)C1CC2C=CC1C2 (configuration not stated) [BIPERIDEN]
Retention_time: 5.78 min

CC(C)NCC(O)COc1ccc(COCCOC(C)C)cc1 (configuration not stated) [BISOPROLOL]
Retention_time: 5.06 min

O=C1CN=C(c2ccccn2)c2cc(Br)ccc2N1 [BROMAZEPAM]
Retention_time: 5.33 min

Cc1nnc2n1-c1sc(Br)cc1C(c1ccccc1Cl)=NC2 [BROTIZOLAM]
Retention_time: 6.27 min

CCCCN1CCCCC1C(=O)Nc1c(C)cccc1C (configuration not stated) [BUPIVACAINE]
Retention_time: 5.08 min

CO[C@]12CC[C@@]3(C[C@@H]1[C@](C)(O)C(C)(C)C)[C@H]1Cc4ccc(O)c5c4[C@@]3(CCN1CC1CC1)[C@H]2O5 [BUPRENORPHINE]
Retention_time: 5.59 min

O=C1CC2(CCCC2)CC(=O)N1CCCCN1CCN(c2ncccn2)CC1 [BUSPIRONE]
Retention_time: 5.14 min

COc1ccccc1OCCNCC(O)COc1cccc2[nH]c3ccccc3c12 (configuration not stated) [CARVEDILOL]
Retention_time: 5.71 min

C[C@H](N)[C@@H](O)c1ccccc1 [CATHINE]
Retention_time: 2.05 min

C[C@H](N)C(=O)c1ccccc1 [CATHINONE]
Retention_time: 2.09 min

CNC1=Nc2ccc(Cl)cc2C(c2ccccc2)=[N+]([O-])C1 [CHLORDIAZEPOXIDE]
Retention_time: 4.94 min

Clc1cccc(N2CCNCC2)c1 [CHLOROPHENYLPIPERAZINE]
Retention_time: 4.08 min

CN(C)CCCN1c2ccccc2Sc2ccc(Cl)cc21 [CHLORPROMAZINE]
Retention_time: 6.12 min

CN(C)CC/C=C1/c2ccccc2Sc2ccc(Cl)cc21 [CHLORPROTHIXENE]
Retention_time: 6.18 min

C(=C\c1ccccc1)/CN1CCN(C(c2ccccc2)c2ccccc2)CC1 [CINNARIZINE]
Retention_time: 6.57 min

CN(C)CCCC1(c2ccc(F)cc2)OCc2cc(C#N)ccc21 (configuration not stated) [CITALOPRAM]
Retention_time: 5.53 min

CN1C(=O)CC(=O)N(c2ccccc2)c2cc(Cl)ccc21 [CLOBAZAM]
Retention_time: 6.28 min

CN(C)CCCN1c2ccccc2CCc2ccc(Cl)cc21 [CLOMIPRAMINE]
Retention_time: 6.22 min

O=C1CN=C(c2ccccc2Cl)c2cc([N+](=O)[O-])ccc2N1 [CLONAZEPAM]
Retention_time: 5.99 min

Clc1cccc(Cl)c1N=C1NCCN1 [CLONIDINE]
Retention_time: 2.44 min

CN1CCN(C2=Nc3cc(Cl)ccc3Nc3ccccc32)CC1 [CLOZAPINE]
Retention_time: 5.1 min

COC(=O)[C@H]1[C@@H](OC(=O)c2ccccc2)C[C@@H]2CC[C@H]1N2C [COCAINE]
Retention_time: 4.46 min

COc1ccc2c3c1O[C@H]1[C@@H](O)C=C[C@H]4[C@@H](C2)N(C)CC[C@@]341 [CODEINE]
Retention_time: 2.5 min

CN1CCN(C(c2ccccc2)c2ccccc2)CC1 [CYCLIZINE]
Retention_time: 5.52 min

O=C1C[N+]([O-])=C(c2ccccc2)c2cc(Cl)ccc2N1 [DEMOXEPAM]
Retention_time: 5.62 min

COc1ccc2c(c1)[C@]13CCCC[C@@H]1[C@H](C2)N(C)CC3 [DEXTROMETHORPHAN]
Retention_time: 5.38 min

CN1CC[C@@]23CCCC[C@@H]2[C@@H]1Cc1ccc(O)cc13 [DEXTRORPHAN]
Retention_time: 3.82 min

CCN(CC)C(C)C(=O)c1ccccc1 (configuration not stated) [DIETHYLPROPION]
Retention_time: 3.05 min

COc1ccc([C@@H]2Sc3ccccc3N(CCN(C)C)C(=O)[C@@H]2OC(C)=O)cc1 [DILTIAZEM]
Retention_time: 5.63 min

CCOC(=O)C1(c2ccccc2)CCN(CCC(C#N)(c2ccccc2)c2ccccc2)CC1 [DIPHENOXYLATE]
Retention_time: 6.56 min

COc1cc(CC(C)N)c(OC)cc1C (configuration not stated) [DOM]
Retention_time: 4.67 min

COc1cc2nc(N3CCN(C(=O)C4COc5ccccc5O4)CC3)nc(N)c2cc1OC (configuration not stated) [DOXAZOSIN]
Retention_time: 5.43 min

CN(C)CCC=C1c2ccccc2COc2ccccc21 [DOXEPIN]
Retention_time: 5.59 min

c1cc2c(c(N3CCNCC3)c1)OCCO2 [ELTOPRAZINE]
Retention_time: 4.9 min

CN[C@@H](C)[C@H](O)c1ccccc1 [EPHEDRINE]
Retention_time: 2.28 min

Clc1ccc2c(c1)C(c1ccccc1)=NCc1nncn1-2 [ESTAZOLAM]
Retention_time: 5.95 min

CCOC(=O)C1=C(C)NC(C)=C(C(=O)OC)C1c1cccc(Cl)c1Cl (configuration not stated) [FELODIPINE]
Retention_time: 7.44 min

O=C(NCC1CCCCN1)c1cc(OCC(F)(F)F)ccc1OCC(F)(F)F (configuration not stated) [FLECAINIDE]
Retention_time: 5.58 min

CCOC(=O)c1ncn2c1CN(C)C(=O)c1cc(F)ccc1-2 [FLUMAZENIL]
Retention_time: 5.13 min

CN1C(=O)CN=C(c2ccccc2F)c2cc([N+](=O)[O-])ccc21 [FLUNITRAZEPAM]
Retention_time: 6.16 min

CNCCC(Oc1ccc(C(F)(F)F)cc1)c1ccccc1 (configuration not stated) [FLUOXETINE]
Retention_time: 6.08 min

CCN(CC)CCN1C(=O)CN=C(c2ccccc2F)c2cc(Cl)ccc21 [FLURAZEPAM]
Retention_time: 5.53 min

COCCCC/C(=N\OCCN)c1ccc(C(F)(F)F)cc1 [FLUVOXAMINE]
Retention_time: 5.91 min

NCC1(CC(=O)O)CCCCC1 [GABAPENTIN]
Retention_time: 2.41 min

O=C1CN=C(c2ccccc2)c2cc(Cl)ccc2N1CC(F)(F)F [HALAZEPAM]
Retention_time: 7.22 min

O=C(CCCN1CCC(O)(c2ccc(Cl)cc2)CC1)c1ccc(F)cc1 [HALOPERIDOL]
Retention_time: 5.57 min

COc1ccc2c3c1O[C@H]1C(=O)CC[C@H]4[C@@H](C2)N(C)CC[C@]314 [HYDROCODONE]
Retention_time: 2.96 min

CN1CC[C@]23c4c5ccc(O)c4O[C@H]2C(=O)CC[C@H]3[C@H]1C5 [HYDROMORPHONE]
Retention_time: 1.84 min

OCCOCCN1CCN(C(c2ccccc2)c2ccc(Cl)cc2)CC1 (configuration not stated) [HYDROXYZINE]
Retention_time: 5.91 min

CC[C@H]1C[C@@H]2C[C@H]3c4[nH]c5ccc(OC)cc5c4CCN(C2)[C@@H]13 [IBOGAINE]
Retention_time: 4.94 min

CN(C)CCCN1c2ccccc2CCc2ccccc21 [IMIPRAMINE]
Retention_time: 5.81 min

CC1Cc2ccccc2N1NC(=O)c1ccc(Cl)c(S(N)(=O)=O)c1 (configuration not stated) [INDAPAMIDE]
Retention_time: 5.79 min

COC(=O)C1=C(C)NC(C)=C(C(=O)OC(C)C)C1c1cccc2nonc12 (configuration not stated) [ISRADIPINE]
Retention_time: 7 min

CNC1(c2ccccc2Cl)CCCCC1=O (configuration not stated) [KETAMINE]
Retention_time: 3.57 min

CCC(=O)C1(c2cccc(O)c2)CCN(C)CC1 [KETOBEMIDONE]
Retention_time: 3.22 min

CC(CCc1ccccc1)NCC(O)c1ccc(O)c(C(N)=O)c1 (configuration not stated) [LABETALOL]
Retention_time: 4.95 min

Nc1nnc(-c2cccc(Cl)c2Cl)c(N)n1 [LAMOTRIGINE]
Retention_time: 3.78 min

COC(=O)C1=C(C)NC(C)=C(C(=O)OC(C)(C)CN(C)CCC(c2ccccc2)c2ccccc2)C1c1cccc([N+](=O)[O-])c1 (configuration not stated) [LERCANIDIPINE]
Retention_time: 6.8 min

COc1ccc2c(c1)N(C[C@H](C)CN(C)C)c1ccccc1S2 [LEVOMEPROMAZINE]
Retention_time: 5.98 min

CN1CC[C@]23CCCC[C@H]2[C@H]1Cc1ccc(O)cc13 [LEVORPHANOL]
Retention_time: 3.82 min

CN(C)C(=O)C(CCN1CCC(O)(c2ccc(Cl)cc2)CC1)(c1ccccc1)c1ccccc1 [LOPERAMIDE]
Retention_time: 6.37 min
